The nature of series [1]: Ames test (mutagenic power). Type of series: cell-based. How it is done:
The tests carried out to measure the toxicity of the initiators are the Ames test and the LLNA sensitization test. The Ames test makes it possible to measure the mutagenic power of the initiator and the LLNA sensitization test makes it possible to detect the sensitizing power of the initiator. The cytotoxicity of the initiators can also be detected in this latter test (see examples). The following toxicology tests were carried out: Ames test: this Ames test makes it possible to measure the mutagenic power of the product Table I below indicates the results obtained for the various photoinitiators prepared above.

The nature of series [2]: LLNA sensitization test. The following applies: cytotoxicity can also be detected. Type of series: in vivo. How it is done: The tests carried out to measure the toxicity of the initiators are the Ames test and the LLNA sensitization test. The Ames test makes it possible to measure the mutagenic power of the initiator and the LLNA sensitization test makes it possible to detect the sensitizing power of the initiator. The cytotoxicity of the initiators can also be detected in this latter test (see examples).
The following toxicology tests were carried out:
LLNA sensitization test: this test makes it possible to detect the sensitizing power of the product. The cytotoxicity of the products can also be detected in the course of the test.
Table I below indicates the results obtained for the various photoinitiators prepared above.

Series [3] is described as follows: Reactivity under UV irradiation of the photoinitiator. The following applies: compared with the other toxic photo-initiators. The text has this:
The crosslinkable compositions comprise the non-toxic initiator prepared in Example 4.

Take `CCOc1ccc([I+]c2ccc(C)cc2)cc1` [Example 8]: in series [1], the Ames entry was “positive and cytotoxic”. The LLNA sensit. entry in series [2] is on record as “positive”.
In the case of `Cc1ccc([I+]c2ccc(C)cc2)cc1` [Example 1, ditolyliodonium chloride], the Ames result in series [1] is listed as “cytotoxic”. The LLNA sensit. entry in series [2] is “cytotoxic”.
Turning to `Cc1ccc([I+]c2ccc(C(C)C)cc2)cc1` [Example 3, cumyltolyliodonium chloride], the Ames result in series [1] is “negative”. For the same molecule, the LLNA sensit. entry in series [2] is listed as “negative”.
As for `Cc1ccc([I+]c2ccc(C(C)C)cc2)cc1` [Example 4], the “reactivity under UV irradiation” value in series [3] is “comparable”.
In the case of `CC(C)c1ccc([I+]c2ccc(C(C)C)cc2)cc1` [Example 10], the Ames entry in series [1] is given as “negative”. Also, the LLNA sensit. result in series [2] was “positive”.
For `Cc1ccc([I+]c2ccc(Oc3ccccc3)cc2)cc1` [Example 9], the Ames entry in series [1] was “cytotoxic”. In series [2], the LLNA sensit. result is “negative”.
`COc1ccc([I+]c2ccc(OC)cc2)cc1` [Example 11]: the Ames result in series [1] is on record as “cytotoxic”. The LLNA sensit. result in series [2] is “cytotoxic”.
Turning to `Cc1ccc([I+]c2ccc(C)cc2)cc1` [Example 2], the Ames entry in series [1] is listed as “positive”. The LLNA sensit. result in series [2] is listed as “positive”.

Values taken from patent publication US6291540A, “Non-toxic initiators and their use for preparing stable and non-toxic polymers” (Rhodia Chimie, priority 1997, dated 2001).
